Measurements from US20070082910A1, “Specific nad(p)h oxidase inhibitor” (Mitsubishi Pharma Corporation, priority 2003, published 2007).
Marks after values point to notes of the source that are not given here.

What was measured:
[1] = tested on: NAD(P)H oxidase in diabetic rat aorta; assay: NAD(P)H oxidase activity (superoxide anion production, lucigenin chemiluminescence) in aorta of streptozotocin diabetic rats after oral administration; type: in vivo; details: for inhibitory rate (%), NAD(P)H oxidase in diabetic rat aorta: once a day for 3 days
Method: Streptozotocin (40 mg/kg) dissolved in 0.05 M citric acid buffer (pH 4.5) was administered into the tail vein of male Wistar rats (Japan SLC) to prepare diabetic rats. At 1 week to 8 weeks from the intravenous injection of streptozotocin, blood was drawn from the tail vein using a capillary treated with heparin, which was immediately cooled with ice and centrifuged at 3000 rpm, 15 min, 4° C. to give serum. The blood glucose level was measured by enzyme assay using a glucose measurement kit “GLU neo sinotest” (sinotest) and a microplate reader (SPECTRA MAX250, Molecular Devices).
The NAD(P)H oxidase activity was measured by the following method, which was modified by the method of the David. G. Harrison et al. (J. Clin. Invest. 91, 2546-2551, 1993), at 4 days from the start of the test, with superoxide anion production in aorta as an index.
To be specific, normal rat or diabetic rat free of the above-mentioned treatment was exsanguinated from the abdominal aorta, their thoracic aorta was removed. The removed thoracic aorta was immersed in Krebs-Hepes buffer and marginal tissues were removed to prepare an about 5 mm ring specimen. This ring specimen was preincubate in Krebs-Hepes buffer at 37° C. for 10 min and transferred to Krebs-Hepes buffer containing 0.25 mM lucigenin (SIGMA). 500 μM NADH (SIGMA) was added and chemiluminescence value (chemiluminescence: unit RLU: relative light units) was measured using a luminometer (MULTI-BIOLUMAT LB9505C, Warrack.Berthold) at 37° C. for 10 min. The total value of chemiluminescence was calculated from the area under the curve (hereinafter to be referred to as “AUC”) drawn by plotting the chemiluminescence value (vertical axis) relative to the measurement time (horizontal axis). The measured total value of chemiluminescence was divided by the wet weight of the vascular ring specimen and standardized to the superoxide anion production per aorta unit weight.
The inhibitory rate (%) was calculated from the following formula: inhibitory rate (%)=100−[(A−C)/(B−C)]×100
wherein A was the standardized value of chemiluminescence of diabetic rat administered with the test compound, B was the standardized value of chemiluminescence of diabetic rat without administration of the test compound, and C was the standardized value of chemiluminescence of normal rat without administration of the test compound.

[2] = tested on: NAD(P)H oxidase; assay: IL-8 production inhibitory effect in HUVEC cultured with 44 mM glucose; type: cell-based, human; details: for inhibitory rate (%) of IL-8 production: 8 days
Method: NAD(P)HOxidase Inhibitory Effect (Method)
44 mM glucose was added to Human Umbilical Vein Endothelial Cells (Bio Whittaker, hereinafter to be indicated as “HUVEC”), and cells were cultured for 8 days. Then, a lysis buffer containing a surfactant, Triton-X Nonidet P-40, was added, and interleukin-8 (hereinafter to be indicated as “IL-8”) in the cell lysate, which had been produced by NAD(P)H oxidase was measured by an enzyme-linked […]. The test compound was added one day before glucose addition.
The inhibitory rate was calculated from the following formula: inhibitory rate (%)=100−[(A−C)/(B−C)]×100
wherein A is IL-8 production of a cell cultured in the presence of 44 mM glucose with addition of the test compound, B is IL-8 production of a cell cultured in the presence of 44 mM glucose without addition of the test compound, and C is IL-8 production of a cell cultured in the absence of 44 mM glucose and the test compound. The IC50 value was calculated from the dose-effect line drawn by the least squares method based on the obtained inhibitory rate.

[3] = tested on: rabbit myocardial infarction model; assay: Rabbit ischemia-reperfusion myocardial infarction model; type: in vivo; details: 1 mg/kg 1 hr before ligation; normal group as 100%
From the text: Male NZW rabbits (Japan SLC) were fixed in the dorsal position and subjected to thoracotomy with pentobarbital anesthesia. A silk thread (No. 4) was applied to the proximal left coronary artery, a polyethylene tube (length 1 cm) was further applied and the left coronary artery was ligated using a thread. After 2 hr from the ligation, the thread on the polyethylene tube was cut to reperfusion. After 4 hr from the reperfusion, the proximal coronary artery was ligated using a silk thread (No. 4), and 3% Evans blue solution (1 mL/kg) was intravenously administered. After 5 min, an excess pentobarbital was administered and the heart and aorta were removed. The heart was cut into a 3 mm-wide annular shape, and the left ventricle area and ischemia region (Evans blue unstained region) were traced.
After incubation in 1% TTC solution for 30 min, an infarction focus (TTC unstained region) was traced. Compound A (1 mg/kg) was administered 1 hr before the ligation.
The ratios of the ischemic region and infarction focus to the left ventricle area were calculated. […]
This suspension was centrifuged at 3000 rpm for 10 min, and the supernatant (8 mL) was centrifuged at 15000 rpm for 15 min. The obtained supernatant was mixed with phosphate buffer containing o-dianisidine dihydrochloride, kept at 25° C. for 30 min, the absorbance (OD460) was measured, and the myeloperoxidase (MPO) activity was determined. […]

[4] = tested on: rabbit chronic myocardial infarction (heart failure) model; assay: Rabbit chronic myocardial infarction (heart failure) model; type: in vivo
Method: Male NZW rabbits (Japan SLC) were fixed in the dorsal position and subjected to thoracotomy with pentobarbital anesthesia. A silk thread (No. 4) was applied to the basal part of the left coronary artery, a polyethylene tube (length 1 cm) was further applied and the left coronary artery was ligated using a thread. After 2 hr from the ligation, the thread on the polyethylene tube was cut to reperfusion. At 2 hr from the reperfusion, compound A (1 mg/kg) was administered once, and administered once a day for 12 weeks. After 12 weeks, an excess pentobarbital was administered, the heart was removed, and the weight thereof and the thickness of the left ventricle center wall were measured.
The compound was evaluated by the mortality rate, heart weight and thickness of left ventricle.

[5] = 1 mg/kg once a day for 12 weeks
[6] = 1 mg/kg once a day, deaths/animals

C[C@@H](Nc1nnc(-c2ccccc2)c2ccccc12)C1CCCCC1.O=C(O)/C=C\C(=O)O [compound A]
inhibitory rate (%), NAD(P)H oxidase in diabetic rat aorta ([1]; 1 mg/kg oral): 76.9% | inhibitory rate (%), NAD(P)H oxidase in diabetic rat aorta ([1]; 10 mg/kg oral): 105.8% | inhibitory rate (%), NAD(P)H oxidase activity in diabetic rat aorta (Table 2) ([1]; 10 mg/kg orally once a day for 3 days): 105.8% | chemiluminescence (×10^5 RLU/wet weight of aorta) ([1]; diabetic rat aorta, 10 mg/kg orally once a day for 3 days, mean ± standard error): 3.8 ± 0.6 ×10^5 RLU/wet weight of aorta | IC50 ([2]; from dose-effect line by least squares): 6.3 nM | inhibitory rate (%) of IL-8 production ([2]; test compound concentration 0.01 μM): 39.5% | inhibitory rate (%) of IL-8 production ([2]; test compound concentration 0.1 μM): 59.8% | inhibitory rate (%) of IL-8 production ([2]; test compound concentration 1 μM): 74% | MPO activity in myocyte [3]: 128%* | mortality rate ([4]; 1 mg/kg once a day): 8% | heart weight (g/kg body weight) [4, 5]: 2.05* g/kg body weight | thickness (mm) of left ventricle [4, 5]: 1.17* mm | cumulative mortality, 2 weeks after ligation [4, 6]: 0/12 | cumulative mortality, 4 weeks after ligation [4, 6]: 1/12
